Source: US10640486B2, “Heteroarylcarboxamide derivatives as plasma kallikrein inhibitors” (Boehringer Ingelheim International GmbH, priority 2015, dated 2020)
pIC50: −log10 of the molar value.

Molecular target: human Plasma Kallikrein (KLKB1) (Homo sapiens (Human), UniProt P03952)
Experiment: Inhibition of KLKB1 endpoint assay
Format: biochemical
Conditions: fluorogenic substrate H-Pro-Phe-Arg-AMC, 1 hr at Room Temperature, read-out: IC50 measurements for the inhibition of human Plasma Kallikrein (KLKB1)
Method: The ability of compounds of Formula I to inhibit plasma kallikrein (KLKB1), Factor XIIa (FXIIa), Factor XIa (FXIa), Factor Xa (FXa), Factor IIa (alpha-thrombin; FIIa), plasmin, trypsin, tissue kallikrein 1 (KLK1), Factor VIIa (FVIIa), or FVIIa complexed with Tissue Factor, phospholipids and CaCl2 (FVIIa/TF/PL/CaCl2) was determined using the following biochemical assays in assay buffer (100 mM Tris, 150 mM NaCL, adjusted to a pH of 7.8 with HCl, and containing 0.1% (w/v) BSA and 0.05% (v/v) Tween20) in the presence of 1% (v/v) DMSO:
Evaluation of the Inhibition of KLKB1 Using an Endpoint Assay
Subsequently, PPACK II (Calbiochem) was added as a stop solution to achieve a final concentration of 1 μM and fluorescence was measured using an Envision Reader (PerkinElmer) with the wavelength excitation setting of 355 nm and the wavelength emission setting of 460 nm.
The IC50 values were obtained with the aid of the inhibition of KLKB1 endpoint assay described above.

Chain of human Plasma Kallikrein (KLKB1) (P03952 391-638): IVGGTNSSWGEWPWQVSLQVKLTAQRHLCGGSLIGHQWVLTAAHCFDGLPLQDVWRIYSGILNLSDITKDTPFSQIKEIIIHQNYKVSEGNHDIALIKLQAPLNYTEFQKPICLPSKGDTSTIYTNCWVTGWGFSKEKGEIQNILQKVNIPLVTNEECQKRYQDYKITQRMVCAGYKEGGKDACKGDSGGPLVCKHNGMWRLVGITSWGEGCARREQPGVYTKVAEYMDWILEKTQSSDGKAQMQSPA
Chain of human Plasma Kallikrein (KLKB1) (P03952 20-390 partner): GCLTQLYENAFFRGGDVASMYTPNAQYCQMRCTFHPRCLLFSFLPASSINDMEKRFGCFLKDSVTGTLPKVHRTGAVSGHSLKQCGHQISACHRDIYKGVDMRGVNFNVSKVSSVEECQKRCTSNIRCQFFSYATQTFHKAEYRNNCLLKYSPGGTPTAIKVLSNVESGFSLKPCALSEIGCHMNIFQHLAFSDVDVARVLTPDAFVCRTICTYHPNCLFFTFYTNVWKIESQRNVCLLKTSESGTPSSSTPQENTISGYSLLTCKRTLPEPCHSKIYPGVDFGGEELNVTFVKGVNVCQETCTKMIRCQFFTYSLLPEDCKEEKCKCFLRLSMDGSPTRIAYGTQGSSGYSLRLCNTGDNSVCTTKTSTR

Compound	pIC50
Nc1ccc2c(n1)CCC2NC(=O)c1cn(Cc2ccc(N3CC4CCCN4C3=O)cc2)nn1 (stereo not shown) [Example 63, 1-[4-(3-Oxo-tetrahydro-pyrrolo[1,2-c]imidazol-2-yl)-benzyl]-1H-[1,2,3]triazole-4-carboxylic acid (2-amino-6,7-dihydro-5H-[1]pyrindin-5-yl)-amide]	5.52
Nc1ccc2c(n1)CCC2NC(=O)c1cn(Cc2ccc(CN3CCC4(CC4)C3=O)cc2)nn1 (stereo not shown) [Example 64, 1-[4-(4-Oxo-5-aza-spiro[2.4]hept-5-ylmethyl)-benzyl]-1H-[1,2,3]triazole-4-carboxylic acid (2-amino-6,7-dihydro-5H-[1]pyrindin-5-yl)-amide]	6.24
Nc1ccc2c(n1)CCC2NC(=O)c1cn(Cc2ccc(N3CC4CC4C3=O)cc2)nn1 (stereo not shown) [Example 65, 1-[4-(2-Oxo-3-aza-bicyclo[3.1.0]hex-3-yl)-benzyl]-1H-[1,2,3]triazole-4-carboxylic acid (2-amino-6,7-dihydro-5H-[1]pyrindin-5-yl)-amide]	5.96
Cc1cc(Cn2cc(C(=O)N[C@@H]3CCc4nc(N)ccc43)cn2)ccc1CN1CC2CC2C1=O (stereo partly drawn) [Example 66, 1-[3-Methyl-4-(2-oxo-3-aza-bicyclo[3.1.0]hex-3-ylmethyl)-benzyl]-1H-pyrazole-4-carboxylic acid ((R)-2-amino-6,7-dihydro-5H-[1]pyrindin-5-yl)-amide]	7.74
Cc1cc(CN2CC3CC3C2=O)ccc1Cn1cc(C(=O)N[C@@H]2CCc3nc(N)ccc32)cn1 (stereo partly drawn) [Example 69, 1-[2-Methyl-4-(2-oxo-3-aza-bicyclo[3.1.0]hex-3-ylmethyl)-benzyl]-1H-pyrazole-4-carboxylic acid ((R)-2-amino-6,7-dihydro-5H-[1]pyrindin-5-yl)-amide]	7.26
Nc1ccc2c(n1)CCC2NC(=O)c1cn(Cc2cccc(N3CCN4CCCCC4C3=O)c2)nn1 (stereo not shown) [Example 70, 1-[3-(1-Oxo-octahydro-pyrido[1,2-a]pyrazin-2-yl)-benzyl]-1H-[1,2,3]triazole-4-carboxylic acid (2-amino-6,7-dihydro-5H-[1]pyrindin-5-yl)-amide]	< 5.00
CC(c1ccc(N2CC3CC3C2)nc1)n1cc(C(=O)N[C@@H]2CCc3c2ccnc3N)cn1 (stereo partly drawn) [Example 71, 1-{1-[6-(3-Aza-bicyclo[3.1.0]hex-3-yl)-pyridin-3-yl]-ethyl}-1H-pyrazole-4-carboxylic acid ((R)-1-amino-6,7-dihydro-5H-[2]pyrindin-5-yl)amide]	8.05
Nc1nccc2c1CC[C@H]2NC(=O)c1cnn(C2(c3ccc(N4CC5CC5C4)nc3)CC2)c1 (stereo partly drawn) [Example 74, 1-{1-[6-(3-Aza-bicyclo[3.1.0]hex-3-yl)-pyridin-3-yl]-cyclopropyl}-1H-pyrazole-4-carboxylic acid ((R)-1-amino-6,7-dihydro-5H-[2]pyrindin-5-yl)amide]	7.39
Nc1nccc2c1CC[C@H]2NC(=O)c1cnn(Cc2ccc(N3CC4CC4C3)nc2)c1 (stereo partly drawn) [Example 75, 1-[6-(3-Aza-bicyclo[3.1.0]hex-3-yl)-pyridin-3-ylmethyl]-1H-pyrazole-4-carboxylic acid ((R)-1-amino-6,7-dihydro-5H-[2]pyrindin-5-yl)amide]	9.00
Nc1ccc2c(n1)CC[C@H]2NC(=O)c1cnn(Cc2ccc(N3CC4CC4C3)nc2)c1 (stereo partly shown) [Example 76]	8.10
Nc1nccc2c1CC[C@H]2NC(=O)c1cn(Cc2ccc(N3CC4CC4C3)nc2)nc1C(F)(F)F (stereo partly shown) [Example 77]	8.70
Nc1ccc2c(n1)CC[C@H]2NC(=O)c1cn(Cc2ccc(N3CC4CC4C3)nc2)nc1C(F)(F)F (stereo partly shown) [Example 78]	7.68
Nc1nccc2c1CC[C@H]2NC(=O)c1cnn(Cc2ccc(N3CC4CCC4C3)nc2)c1 (stereo partly shown) [Example 79]	8.10
Nc1nccc2c1CC[C@H]2NC(=O)c1cnn(Cc2cnc(N3CC4CC4C3)nc2)c1 (stereo partly shown) [Example 80]	8.52
Nc1ccc2c(n1)CC[C@H]2NC(=O)c1cnn(Cc2cnc(N3CC4CC4C3)nc2)c1 (stereo partly shown) [Example 81]	7.72
Nc1nccc2c1CC[C@H]2NC(=O)c1cn(Cc2cnc(N3CC4CC4C3)nc2)nn1 (stereo partly shown) [Example 82]	8.15
Nc1ccc2c(n1)CC[C@H]2NC(=O)c1cn(Cc2cnc(N3CC4CC4C3)nc2)nn1 (stereo partly shown) [Example 83]	7.14
Nc1nccc2c1CC[C@H]2NC(=O)c1cnn(Cc2ccc(N3CC4C(C3)C4(F)F)nc2)c1 (stereo partly shown) [Example 84]	9.00
Nc1nccc2c1CC[C@H]2NC(=O)c1cnn(Cc2cnc(N3CC4CC4C3)cn2)c1 (stereo partly shown) [Example 85]	8.40
Nc1ccc2c(n1)CC[C@H]2NC(=O)c1cnn(Cc2cnc(N3CC4CC4C3)cn2)c1 (stereo partly shown) [Example 86]	7.47
Cc1cc(N)nc2c1C(NC(=O)c1cn(Cc3ccc(N4CC5COCCN5C4=O)cc3)nn1)CC2 (stereo not shown) [Example 87, 1-[4-(3-Oxo-tetrahydro-imidazo[5,1-c][1,4]oxazin-2-yl)-benzyl]-1H-[1,2,3]triazole-4-carboxylic acid (2-amino-4-methyl-6,7-dihydro-5H-[1]pyrindin-5-yl)-amide]	5.49
Nc1nccc2c1CC[C@H]2NC(=O)c1cnn(Cc2ccc(N3CCC4(CC4)C3)nc2)c1 [Example 89]	8.30
Nc1nccc2c1CC[C@H]2NC(=O)c1cnn(Cc2ccc(N3CC4(COC4)C3)nc2)c1 [Example 90]	7.11
Nc1nccc2c1CC[C@H]2NC(=O)c1cnn(Cc2ccc(N3C[C@@H]4[C@@H](CO)[C@@H]4C3)nc2)c1 [Example 91]	7.42
Nc1ccc2c(n1)CC[C@H]2NC(=O)c1cn(Cc2cnc(N3CC4CC4C3)nc2)nc1C(F)(F)F (stereo partly shown) [Example 92]	7.64
